This series in a line: speed of dissolution in water (10 mg crystal in 50 mL ion exchanged water, 60 rpm, concentration by liquid chromatography). Type of series: physicochemical. Particulars: for concentration (elution %): 10 mg in 50 mL ion exchanged water, 60 revolutions per minute. The method, then: The anhydrous form of a B type crystal of 7-[2-(2-aminothiazol-4-yl)-2-hydroxyiminoacetamide]-3-vinyl-3-cephem-4-carboxylic acid (syn isomer) obtained in Example 2, and the A type crystal of a compound (I) obtained by deposition of a crystal from a sodium bicarbonate aqueous solution having a pH value of 3.6 and a temperature of 22° C. in Example 1 were used, and the speed of dissolution thereof in water was measured.
Namely, each 10 mg of the above-mentioned A type crystal or B type crystal was put into 50 mL of ion exchanged water and dissolved at a revolution per minute of 60, and the concentrations of each crystal in the solution with the lapse of time were measured by liquid chromatography.

As to `C=CC1=C(C(=O)O)N2C(=O)C(NC(=O)/C(=N\O)c3csc(N)n3)C2SC1` (stereo not drawn) [A type crystal, 7-[2-(2-aminothiazol-4-yl)-2-hydroxyiminoacetamide]-3-vinyl-3-cephem-4-carboxylic acid (syn isomer), reference compound], the “concentration (elution %)” value was 32.7 elution % (lapse time 110 min), 39.7 elution % (lapse time 340 min) and 63.7 elution % (lapse time 700 min).
`C=CC1=C(C(=O)O)N2C(=O)C(NC(=O)/C(=N\O)c3csc(N)n3)C2SC1` (stereo not drawn) [B type crystal, 7-[2-(2-aminothiazol-4-yl)-2-hydroxyiminoacetamide]-3-vinyl-3-cephem-4-carboxylic acid (syn isomer)]: the “solubility in water compared with conventional A type crystal” value (conclusion from Table 5) was “more excellent solubility in water as compared with a conventional A type crystal”. In addition, the “concentration (elution %)” value runs as follows: (lapse time 110 min) 72.8 elution %; (lapse time 340 min) 78.4 elution %; (lapse time 700 min) 91.1 elution %.

(Values after patent US20070270586A1, “NOVEL CRYSTAL OF 7-[2-[(2-AMINOTHIAZOL-4-YL)-2-HYDROXYIMINOACETAMIDE-3-VINYL-3-CEPHEM-4-CARBOXYLIC ACID (SYN ISOMER) AND METHOD FOR PREPARATION THEREOF” (priority 2003, published 2007).)
